# Assay results taken from ChEMBL document CHEMBL4619749, “Triazoxins: Novel nucleosides with anti-Giardia activity” (Bioorg Med Chem Lett, 2020).
# What was measured:
# Type in all cases: functional, organism-based
# Conditions in all cases: Giardia duodenalis
# Giardia intestinalis [1] = experiment: Antimicrobial activity against Giardia lamblia assemblage A WB C6 ATCC 30957 trophozoites
# Giardia intestinalis [2] = experiment: Antimicrobial activity against Giardia lamblia assemblage A WB C6 ATCC 30957 cyst
# Giardia intestinalis [3] = experiment: Antimicrobial activity against Giardia lamblia GS/M assessed as reduction in trophozoites formation
SMILES,IC50 (Giardia intestinalis [1]),IC50 (Giardia intestinalis [2]),EC50 (Giardia intestinalis [3])
CC1(C)O[C@@H]2[C@H](O1)[C@@H](Cn1cc(C#Cc3c[nH]c(=O)[nH]c3=O)nn1)O[C@H]2n1ccc(=O)[nH]c1=O,5 µM,> 50 µM,–
CC1(C)O[C@@H]2[C@H](O1)[C@@H](Cn1cc(CCCCc3cn(C[C@H]4O[C@@H](n5ccc(=O)[nH]c5=O)[C@@H]5OC(C)(C)O[C@@H]54)nn3)nn1)O[C@H]2n1ccc(=O)[nH]c1=O,47 µM,> 50 µM,–
Cc1ncc([N+](=O)[O-])n1CCO [METRONIDAZOLE],–,–,5.2 µM

# More lines, now with the values ahead:
IC50 (Giardia intestinalis [1]),IC50 (Giardia intestinalis [2]),EC50 (Giardia intestinalis [3]),SMILES
36 µM,20 µM,–,O=c1ccn([C@@H]2O[C@H](Cn3cc(C#Cc4c[nH]c(=O)[nH]c4=O)nn3)[C@@H](O)[C@H]2O)c(=O)[nH]1
47 µM,> 50 µM,–,O=c1ccn([C@@H]2O[C@H](Cn3cc(C#CC#Cc4cn(C[C@H]5O[C@@H](n6ccc(=O)[nH]c6=O)[C@H](O)[C@@H]5O)nn4)nn3)[C@@H](O)[C@H]2O)c(=O)[nH]1
36 µM,5 µM,–,COc1ccc(Cn2cc(C#Cc3cn(C[C@H]4O[C@@H](n5ccc(=O)n(Cc6ccc(OC)cc6)c5=O)[C@@H]5OC(C)(C)O[C@@H]54)nn3)c(=O)n(Cc3ccc(OC)cc3)c2=O)cc1
